The nature of the data set: Effect of relative humidity on polymorphic forms of Compound 10 (monitored by XRPD). The conditions noted are these: for Description of polymorph (stability / conditions of formation): RH = relative humidity; for Stability at 0% RH: relevant condition for storage and further processing; for Form conversion at 33% RH: Form A only after at least 2 weeks; for Form conversion at 97% RH and above: RH of 97% and above. It counts as physicochemical. How it is done:
Studies were performed to identify the different polymorphic forms of Compound 10 drug substance. Seven polymorphs of Compound 10 in total have been identified (TABLE 1).
Compound 10 is hygroscopic and is therefore packaged and stored at conditions that inhibit moisture uptake. Experiments were performed to understand the effect of relative humidity on various polymorphic forms of Compound 10. Form A and Form B were subjected to increasing relative humidity (TABLE 2) and monitored using XRPD to evaluate polymorphism.
Forms A, B, C, and D were characterized by X-ray powder diffraction (XRPD). XRPD diffractograms were collected with a PANalytical X'Pert PRO MPD® diffractometer using an incident beam of Cu radiation produced using an Optix long, fine-focus source. An elliptically graded multilayer mirror was used to focus Cu Kα X-rays through the specimen and onto the detector. Prior to the analysis, a silicon specimen (NIST SRM 640e) was analyzed to verify the observed position of the Si 111 peak is consistent with the NIST-certified position. For the determination of solid forms under the environmental conditions surveyed in EXAMPLE 6, samples of Compound 10 were stored within environmental chambers maintained at specific relative humidity conditions. A specimen of the sample was sandwiched between 3-μm-thick Etnom® films within these environmental chambers. Once prepared, the test article was removed from the environmental chamber and analyzed in transmission geometry without undue delay. A beam-stop, short antiscatter extension, and antiscatter knife edge were used to minimize the background generated by air. Soller slits for the incident and diffracted beams were used to minimize broadening from axial divergence. Diffraction patterns were collected using a scanning position-sensitive detector (X'Celerator) located 240 mm from the specimen and Data Collector software v. 2.2b.

`Nc1ncn([C@H]2CC(OP(=O)([O-])OC[C@H]3O[C@@H](n4cnc5c(=O)[nH]c(N)nc54)CC3O)[C@@H](CO)O2)c(=O)n1.[Na+]` (some centres unmarked) [Form D, guadecitabine sodium]: the “Description of polymorph (stability / conditions of formation)” value is given as “Formed from Form B at 58% RH”.

Turning to `Nc1ncn([C@H]2C[C@H](OP(=O)([O-])OC[C@H]3O[C@@H](n4cnc5c(=O)[nH]c(N)nc54)C[C@@H]3O)[C@@H](CO)O2)c(=O)n1.[Na+]` [Form C, guadecitabine sodium], the “Description of polymorph (stability / conditions of formation)” value is “Formed from ethanolic slurry of Form A”.

On to `Nc1ncn([C@H]2C[C@H](OP(=O)([O-])OC[C@H]3O[C@@H](n4cnc5c(=O)[nH]c(N)nc54)C[C@@H]3O)[C@@H](CO)O2)c(=O)n1.[Na+]` [Compound 10, guadecitabine sodium], for which the Hygroscopicity entry is given as “hygroscopic”.

In the case of `Nc1ncn([C@H]2C[C@H](OP(=O)([O-])OC[C@H]3O[C@@H](n4cnc5c(=O)[nH]c(N)nc54)C[C@@H]3O)[C@@H](CO)O2)c(=O)n1.[Na+]` [Form A, guadecitabine sodium], the “Stability at 0% RH” value is given as “stable” and the “Description of polymorph (stability / conditions of formation)” value was “Stable form at 0% RH”. Under “33% RH”, the “Duration of stability at 33% RH” value was “at least 2 weeks” and the “Form conversion at 33% RH” value is given as “converted to Form K”.

As for `Nc1ncn([C@H]2C[C@H](OP(=O)([O-])OC[C@H]3O[C@@H](n4cnc5c(=O)[nH]c(N)nc54)C[C@@H]3O)[C@@H](CO)O2)c(=O)n1.[Na+]` [Form H, guadecitabine sodium], the “Description of polymorph (stability / conditions of formation)” value is listed as “Formed from Form B at 33% RH”.

With `Nc1ncn([C@H]2CC(OP(=O)([O-])OC[C@H]3O[C@@H](n4cnc5c(=O)[nH]c(N)nc54)CC3O)[C@@H](CO)O2)c(=O)n1.[Na+]` (some centres unmarked) [Form L, guadecitabine sodium], the “Description of polymorph (stability / conditions of formation)” value is “Formed from Form A at 97% RH”.

Consider `Nc1ncn([C@H]2C[C@H](OP(=O)([O-])OC[C@H]3O[C@@H](n4cnc5c(=O)[nH]c(N)nc54)C[C@@H]3O)[C@@H](CO)O2)c(=O)n1.[Na+]` [Form B, guadecitabine sodium], for which the “Stability at 0% RH” value was “stable”; the “Description of polymorph (stability / conditions of formation)” value was “Stable form at 0% RH”; the “Form conversion at 97% RH and above” value was “deliquescence to afford a mesophase”. Where the note is “33% RH”, the “Form conversion at 33% RH” value is reported as “converted to Form H”. Besides, the “Polymorph observed at 97% RH” value (97% relative humidity, XRPD) is on record as “Mesophase”. Also, the “Form obtained on increasing RH” value (RH increased beyond 33%) is on record as “formation of Form D”.

For the compound `Nc1ncn([C@H]2C[C@H](OP(=O)([O-])OC[C@H]3O[C@@H](n4cnc5c(=O)[nH]c(N)nc54)C[C@@H]3O)[C@@H](CO)O2)c(=O)n1.[Na+]` [Form K, guadecitabine sodium], the “Description of polymorph (stability / conditions of formation)” value is “Formed from Form A at 58% RH”; the “Form conversion at 97% RH and above” value is “converted to Form L”.

Source of the values: patent US20220144881A1, “COMPOUNDS AND METHODS FOR MANUFACTURE OF HYPOMETHYLATING AGENTS” (priority 2020, published 2022).
